# Data taken from patent publication US11572590B2, “Methods for evaluating tumor cell spheroids using 3D microfluidic cell culture device” (Dana-Farber Cancer Institute, Inc., priority 2017, dated 2023).
# Experiments:
# [1] = tested on: B16F10 MDOTS; test: Live/dead (AO/PI) imaging of B16F10 MDOTS in 3D microfluidic culture; type: cell-based, murine; conditions: Cmpd1 (1 μM) + αPD-1, 6 days
# Description: (§1) Fresh tumor specimens (murine and human patients) were received in media (DMEM) on ice and minced in a 10 cm dish (on ice) using sterile forceps and scalpel. Minced tumor was resuspended in DMEM ([…], […] sodium pyruvate, 1:100 penicillin-streptomycin) (Corning CellGro, Manassas, Va.) +10% FBS (Gemini Bio-Products, West Sacramento, Calif.), 100 U/mL collagenase type IV (Life Technologies, Carlsbad, Calif.), and 15 mM HEPES (Life Technologies, Carlsbad, Calif.), except for CT26 tumors that were prepared in RPMI. Samples were pelleted and resuspended in 10-20 mL media. Red blood cells were removed from visibly bloody samples using RBC Lysis Buffer (Boston Bio-Products, Ashland, Mass.). […]
# Dual labeling was performed by loading microfluidic device with Nexcelom ViaStain™ AO/PI Staining Solution (Nexcelom, CS2-0106). Following incubation with the dyes (20 minutes at room temperature in the dark), images were captured on a Nikon Eclipse 80i fluorescence microscope equipped with Z-stack (Prior) and CoolSNAP CCD camera (Roper Scientific). […] Live and dead cell quantitation was performed by measuring total cell area of each dye. […]
# [2] = tested on: B16F10 MDOTS; test: Bead-based cytokine profiling of B16F10 MDOTS; type: cell-based, murine; conditions: Cmpd1 (1 μM) ± αPD-1
# Description: as §1
# Two multiplex assays were performed utilizing a bead-based immunoassay approach, the Bio-Plex Pro™ Human Cytokine 40-plex Assay (Cat #171AK99MR2) and Bio-Plex Pro™ Mouse Cytokine Panel 1, 23-plex (Cat #M60009RDPD) on a Bio-plex 200 system (Cat #171000201). […] Fold changes relative to the MDOT/PDOT control were calculated and plotted as log 2FC. Lower and upper limits of quantitation (LLOQ/ULOQ) were imputed from standard curves for cytokines above or below detection. […]
# [3] = tested on: CT26 and EMT6 cells; test: Re-implantation of CT26 and EMT6 cells into mice with exceptional responses (immunologic memory); type: in vivo, mouse; conditions: previous αPD-L1 + Compound 1
# Description: Combination studies were performed by vivoPharm (Hummelstown, Pa., USA). All procedures used in the performance of these studies were carried out in accordance with vivoPharm's Standard Operating Procedures, with particular reference to US_SOPvP_EF0314 “General Procedures for Efficacy Studies.” CT26 colon carcinoma cells (1×10^6 cells/mouse in 100 μL, passage 2-3) were re-suspended in serum-free DMEM and implanted in the upper right flank of 11-12 week old female Balb/c mice (Charles River Laboratories). Mice were randomized into four groups of 10 using a matched pair distribution method based on tumor size for CT26. Treatment was initiated 12 days post-inoculation with mean tumor volume at start of dosing of 125.85 mm^3. Vehicle or Compound 1 (40 mg/kg) was administered by oral gavage daily for 26 days and isotype control or a reverse chimera anti-PD-L1 cloned from literature reports (e.g., Deng, R. et al. MAbs (2016), the content of which is incorporated herein by reference in entirety) and placed into a mouse IgG1 framework (10 mg/kg) was administered every 5 days for a total of six doses. Investigators were not blinded to treatment groups. […] Mice were sacrificed on Day 13 and lung metastases were quantified (small ≤1 mm, medium >1 mm and ≤3 mm, large >3 mm). No large lung metastases were detected.
compound,measurement,setting,value
"N#Cc1cc(-c2ncnc(Nc3ccc(N4CCN(C5COC5)CC4)cc3)n2)ccc1OC1CCOCC1 [Compound 1, 5-(4-((4-(4-(oxetan-3-yl)piperazin-1-yl)phenyl)amino)-1,3,5-triazin-2-yl)-2-((tetrahydro-2H-pyran-4-yl)oxy)benzonitrile]",sensitization of B16F10 MDOTS to PD-1 blockade (live/dead),[1],could not be sensitized
same,"immune suppressive chemokines (e.g., CCL2, CCL5) in B16F10 MDOTS",[2],downregulation
same,induction of G-CSF and related innate immune response cytokines in B16F10 MDOTS,[2],without concomitant induction
same,growth of reimplanted CT26 in mice with exceptional responses to combination therapy,[3],no growth
